Experiments:
[1] = test system: hexokinase, glucose-6-phosphate dehydrogenase, thioredoxin, thioredoxin reductase; experiment: Reconstructed enzymatic reduction system, Bioanalyzer assay; settings: inhibitor 0.1 mM
G6PD = G6PD (Homo sapiens, UniProt P11413); settings: cited from earlier work
[2] = test system: ocrelizumab reduction in HCCF (Trx system, G6PD, hexokinase); experiment: HCCF incubation experiment in mini-tanks, Bioanalyzer assay
[3] = test system: antibody disulfide bond reduction in CCF/HCCF; experiment: Minimum effective inhibitor concentration to prevent antibody disulfide reduction in the CHO production process; format: biochemical; settings: for minimum effective inhibitory concentration as multiple of antibody concentration: usual
[4] = test system: ocrelizumab disulfide bond reduction in HCCF; experiment: Lab scale HCCF hold time study: percentage of intact antibody in protein A elution pools; format: biochemical, CHO; settings: for intact (150 kDa) antibody remaining in protein A elution pools: FIG. 19 legend, HCCF hold
[5] = target: T1, thioredoxin system (Trx, TrxR, NADPH) (Rattus norvegicus, UniProt O89049); experiment: In vitro Trx/TrxR study in histidine sulfate buffer: reduction of ocrelizumab, Bioanalyzer assay; settings: for minimum inhibitory concentration as multiple of TrxR concentration: typical
T1 sequence (O89049 1-499): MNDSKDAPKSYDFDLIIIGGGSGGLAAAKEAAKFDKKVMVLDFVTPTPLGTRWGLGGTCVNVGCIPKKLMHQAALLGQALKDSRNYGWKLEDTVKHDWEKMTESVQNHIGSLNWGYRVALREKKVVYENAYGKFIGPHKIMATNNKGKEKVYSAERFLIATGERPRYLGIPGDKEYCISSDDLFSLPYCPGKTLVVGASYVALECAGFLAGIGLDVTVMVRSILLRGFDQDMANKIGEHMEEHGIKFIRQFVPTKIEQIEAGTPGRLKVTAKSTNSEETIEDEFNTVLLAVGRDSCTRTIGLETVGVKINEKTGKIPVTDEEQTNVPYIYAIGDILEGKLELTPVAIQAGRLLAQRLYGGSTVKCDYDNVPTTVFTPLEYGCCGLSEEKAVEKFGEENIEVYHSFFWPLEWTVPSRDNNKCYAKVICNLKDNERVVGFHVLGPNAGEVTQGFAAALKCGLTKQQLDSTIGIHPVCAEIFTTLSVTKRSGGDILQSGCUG
Procedure: (§1) A commercial TrxR (rat liver) solution (4 μM) was diluted with water to yield a 2.86 μM solution. Lyophilized Trx (human) was reconstituted with PBS (10 mM, pH 7.2) yielding a 500 μM solution. A solution of 20 mM NADPH and 10 mM ATG and ATM solutions were prepared in water.
In a black polypropylene 1.5 mL micro centrifuge tube, 437 μL reaction buffer (10 mM histidine, 10 mM Na2SO4, 137 mM NaCl, 2.5 mM KCl, pH 7.0), 25 μL NADPH, 16 μL formulated ocrelizumab solution (30.2 mg/mL) and 5 μL Trx were gently mixed. The reaction was initiated by the addition of 17.5 μL TrxR. The reaction was incubated at room temperature for 24 hours. Aliquots of 20 μL were taken at each sampling time-point and stored at −70° C. until analyzed by the Bioanalyzer assay.

[6] = test system: ocrelizumab reduction in HCCF; experiment: Dialysis experiment: ocrelizumab in dialysis bag (MWCO 7000) incubated in HCCF; settings: ocrelizumab outside the bag in the HCCF (FIG. 2)
Procedure: A dialysis experiment was carried out in order to determine whether the components causing reduction of ocrelizumab were small molecules or macromolecules (i.e. enzymes). A sample of 3 mL of purified and formulated ocrelizumab (30.2 mg/mL) was dialyzed against 1 L of phosphate buffered saline (PBS, 10 mM pH 7.2) for 24 hours and the PBS was changed after 8 hours. The concentration of the ocrelizumab sample was then adjusted to 1 mg/mL using the absorbance at 280 nm. Aliquots were stored at −70° C. prior to use. Dialysis tubing was hydrated overnight in a 0.05% azide solution and rinsed with sterile water prior to use. The HCCF obtained from homogenization of CCF from a 3-L fermentor was thawed and filtered through a 0.22 μm Millipak filter using a peristaltic pump. Six short mini-tanks were filled with 30 mL of HCCF each. To each mini-tank, 500 μL of ocrelizumab sample in sealed dialysis tubing was added.
A dialysis experiment was designed and carried out to determine if the reduction of ocrelizumab was caused by small reducing molecules or macromolecules (e.g., enzymes). In this dialysis experiment, purified intact ocrelizumab was placed in a dialysis bag with a molecular weight cut off (MWCO) of 7000 and incubated the dialysis bag in HCCF containing ocrelizumab in a stainless steel mini-tank.

[7] = test system: ocrelizumab disulfide bond reduction in HCCF; experiment: Air sparging of HCCF: percentage of intact antibody in protein A elution pools
Procedure: To evaluate air sparging of the HCCF generated from homogenized CCF to prevent antibody disulfide reduction, 3-L glass or 15-L stainless steel vessels were utilized.
Approximately 1-5 L of HCCF was 0.22 μm sterile filtered into each sterilized vessel. Experimental conditions were maintained at 18-22° C. and 50 (15-L fermentor) or 275 rpm (3-L fermentor) agitation either with or without pH control by the addition of carbon dioxide. Solutions were either sparged with air to increase the dissolved oxygen level to air saturation or with nitrogen (control) to remove any dissolved oxygen in solution. Gas flow to each vessel was variable dependent upon whether a constant aeration rate was used or a minimum level of dissolved oxygen was maintained. At pre-determined time points, 25-50 mL samples were removed from both vessels and purified over a lab scale protein A affinity resin prior to analysis.
The antibody concentration in the purified protein A pool was measured using UV spectrometry at 280 nm. The purified protein A elution pools were analyzed by the Bioanalyzer assay to quantitate the percentage of intact antibody at 150 kDa molecular weight.
One HCCF mixture generated from homogenized CCF was stored and held in two separate L stainless steel fermentors. One vessel was sparged with air while the other vessel was sparged with nitrogen gas. The ocrelizumab antibody was purified immediately (t=0 hr) from the initial mixture using protein A chromatography. At selected time points, 50 mL samples were removed from each vessel and the antibody was purified using protein A chromatography. Purified protein A elution pools were then analyzed by the Bioanalyzer assay to quantitate the percentage of intact antibody at 150 kDa.

[8] = target: T1, thioredoxin system (Trx, TrxR, NADPH); experiment: In vitro Trx/TrxR study in PBS: reduction of ocrelizumab, Bioanalyzer assay; settings: inhibitor 1 mM, PBS (FIGS. 6, 7)
Procedure: as §1
In a black polypropylene 1.5 mL micro centrifuge tube, 437 μL PBS, 25 μL NADPH, 16 μL formulated ocrelizumab solution (30.2 mg/mL) and 5 μL Trx were gently mixed. The reaction was initiated by the addition of 17.5 μL TrxR. The reaction was incubated at room temperature for 24 hours. Aliquots of 20 μL were taken at each sampling time-point and stored at −70° C. until analyzed by the Bioanalyzer assay (see below).

[9] = added pre-lysis, antibody 2H7 (Variant A)
[10] = inhibitor 2.6 mM (FIGS. 38, 39)
[11] = inhibitor 1 mM, HCCF from homogenized CCF of a 3-L fermentor (FIGS. 11, 12)

Sequence of G6PD (P11413 whole entry): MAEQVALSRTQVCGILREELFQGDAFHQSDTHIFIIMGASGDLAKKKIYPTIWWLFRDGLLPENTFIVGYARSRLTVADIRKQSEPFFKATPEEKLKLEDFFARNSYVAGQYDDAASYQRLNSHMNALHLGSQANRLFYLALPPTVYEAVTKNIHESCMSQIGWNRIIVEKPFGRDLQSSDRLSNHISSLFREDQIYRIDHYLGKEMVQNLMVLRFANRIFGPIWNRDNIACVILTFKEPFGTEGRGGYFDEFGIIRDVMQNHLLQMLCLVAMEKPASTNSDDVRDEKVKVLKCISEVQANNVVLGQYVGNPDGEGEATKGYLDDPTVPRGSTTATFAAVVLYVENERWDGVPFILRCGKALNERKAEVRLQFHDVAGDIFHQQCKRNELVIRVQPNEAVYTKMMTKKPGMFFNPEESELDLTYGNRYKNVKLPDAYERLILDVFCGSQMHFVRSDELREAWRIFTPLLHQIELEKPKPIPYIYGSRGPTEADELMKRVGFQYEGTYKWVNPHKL

## C[C@]12CC[C@H](O)CC1=CC[C@@H]1[C@@H]2CC[C@]2(C)C(=O)CC[C@@H]12 [DHEA, dehydroepiandrosterone]
[1]
  inhibition of ocrelizumab reduction: does not inhibit the reduction
G6PD
  G6PD inhibition: effectively blocks G6PD activity
[2]; DHEA added to HCCF, concentration not given
  inhibition of antibody reduction in HCCF: prevents antibody reduction

## O=C(O)CN(CCN(CC(=O)O)CC(=O)O)CC(=O)O [EDTA, ethylenediaminetetraacetic acid]
[3]; antibody 2H7 (Variant A)
  minimum effective concentration: about 10 mM
[4]
  intact (150 kDa) antibody remaining in protein A elution pools: ~100%
[2]; 20 mM EDTA with 5 mM G6P, beta run HCCF that had fully lost reducing activity (FIG. 18)
  inhibition of ocrelizumab reduction in HCCF: unable to prevent the reduction
[2]; 20 mM EDTA, HCCF from 12,000 L manufacturing run (alpha run) (FIG. 17)
  inhibition of ocrelizumab reduction in HCCF: completely inhibited

## NCCSSCCN [cystamine]
[3]
  minimum effective inhibitory concentration as multiple of antibody concentration: about 40 × of the antibody concentration (in μM)
[5]; inhibitor 26.6 μM (1:1 cystamine:2H7 disulfide), after 24 hours (FIG. 37)
  inhibition of ocrelizumab reduction by Trx system: insufficient to inhibit the reduction of ocrelizumab
[5]; inhibitor 133 μM (5:1 cystamine:2H7 disulfide), after 24 hours (FIG. 36)
  inhibition of ocrelizumab reduction by Trx system: insufficient to inhibit the reduction of ocrelizumab
[5]; inhibitor 266 μM (10:1 cystamine:2H7 disulfide) (FIG. 35)
  inhibition of ocrelizumab reduction by Trx system: effectively inhibits thioredoxin-induced reduction of ocrelizumab
[5]; inhibitor 532 μM (20:1 cystamine:2H7 disulfide) (FIG. 34)
  inhibition of ocrelizumab reduction by Trx system: effectively inhibits thioredoxin-induced reduction of ocrelizumab

## NC(=O)C1=CN([C@@H]2O[C@H](COP(=O)(O)OP(=O)(O)OC[C@H]3O[C@@H](n4cnc5c(N)ncnc54)[C@H](OP(=O)(O)O)[C@@H]3O)[C@@H](O)[C@H]2O)C=CC1 [NADPH, α-nicotinamide adenine dinucleotide phosphate]
[2]; 5 mM NADPH, beta run HCCF after several freeze/thaw cycles (FIG. 14)
  restoration of lost reduction activity in HCCF: the reduction event returned

## O=C[C@H](O)[C@@H](O)[C@H](O)[C@H](O)COP(=O)(O)O [Variant G6P, glucose-6-phosphate]
[2]; 10 mM G6P, repeatedly freeze-thawed beta run HCCF (FIG. 15)
  restoration of lost reduction activity in HCCF: reactivated the Trx system

## ocrelizumab: humanized anti-CD20 antibody 2H7 Variant A: VL SEQ ID NO:1, VH SEQ ID NO:2, L chain SEQ ID NO:6, H chain SEQ ID NO:7
[6]
  reduction of ocrelizumab: significantly reduced
[7]; HCCF sparged with air, FIG. 20 legend
  intact (150 kDa) antibody remaining in protein A elution pools: ~100%
[7]; control HCCF after 5 hours of sparging with nitrogen, FIG. 20 legend
  ocrelizumab reduction: almost completely reduced
[7]; initial solution, t=0 hr
  percentage of intact antibody at 150 kDa: approximately 85%
[7]; sparged with nitrogen gas, 2 hr
  percentage of intact antibody at 150 kDa: 28%
[7]; sparged with nitrogen gas, 6 hr
  percentage of intact antibody at 150 kDa: 5%
[4]; control mixture without any addition, 20 hr
  intact antibody (150 kDa): not detected
[2]; HCCF from 12,000 L manufacturing run, ambient temperature, more than 19 hours (FIG. 16)
  ocrelizumab reduction in HCCF, no addition: reduced
[2]; HCCF from homogenized CCF of a 3-L fermentor (FIG. 10)
  ocrelizumab reduction in HCCF, no addition: readily reduced
[2]; beta run HCCF after several freeze/thaw cycles (FIG. 13)
  ocrelizumab reduction in HCCF, no addition: no ocrelizumab reduction was observed

## oxidized glutathione [GSSG]
[3]; [9]
  minimum effective concentration: about 1.3 mM
[3]
  minimum effective inhibitory concentration as multiple of antibody concentration: about 40 × of the antibody concentration (in μM)
[5]; [10]
  inhibition of ocrelizumab reduction by Trx system: effectively inhibits reduction of ocrelizumab

## O=C(O)CC([S-])C(=O)O.[Au+] (stereo not drawn) [aurothiomalate]
[8]
  inhibition of ocrelizumab reduction by Trx system: effectively inhibited the ocrelizumab reduction
[2]; [11]
  inhibition of ocrelizumab reduction in HCCF: completely inhibited
[5]; inhibitor 0.01 mM (FIG. 30)
  inhibition of ocrelizumab reduction by Trx system: effectively inhibits the reduction of ocrelizumab
[5]; inhibitor 0.1 mM (FIG. 29)
  inhibition of ocrelizumab reduction by Trx system: effectively inhibits the reduction of ocrelizumab
[5]
  minimum inhibitory concentration as multiple of TrxR concentration: around 4 × TrxR concentration

## OC[C@H]1O[C@H]([S-])[C@H](O)[C@@H](O)[C@@H]1O.[Au+] [aurothioglucose]
[8]
  inhibition of ocrelizumab reduction by Trx system: effectively inhibited the ocrelizumab reduction
[2]; [11]
  inhibition of ocrelizumab reduction in HCCF: completely inhibited
[5]; inhibitor 0.2 μM (2:1 ATG:TrxR), after 24 hours (FIG. 28)
  inhibition of ocrelizumab reduction by Trx system: cannot inhibit ocrelizumab reduction
[5]; inhibitor 0.4 μM (4:1 ATG:TrxR) (FIG. 27)
  inhibition of ocrelizumab reduction by Trx system: effectively inhibits the reduction of ocrelizumab
[5]; inhibitor 0.6 μM (6:1 ATG:TrxR) (FIG. 26)
  inhibition of ocrelizumab reduction by Trx system: effectively inhibits the reduction of ocrelizumab
[5]; inhibitor 1 mM (FIG. 25)
  inhibition of ocrelizumab reduction by Trx system: effectively inhibits the reduction of ocrelizumab
[5]
  minimum inhibitory concentration as multiple of TrxR concentration: around 4 × TrxR concentration

## N[C@@H](CSSC[C@H](N)C(=O)O)C(=O)O [cystine]
[3]; added in the cell culture medium, 2H7 (Variant A)
  minimum effective concentration: about 5.2 mM
[3]; added in the cell culture medium, Apomab
  minimum effective concentration: ~6 mM
[3]; added in the cell culture medium, antibody Variant C
  minimum effective concentration: ~9 mM
[3]; added pre-lysis, Apomab
  minimum effective concentration: about 1 mM
[3]; [9]
  minimum effective concentration: about 1.3 mM
[3]; added pre-lysis, antibody Variant C
  minimum effective concentration: about 4.5 mM
[3]
  minimum effective inhibitory concentration as multiple of antibody concentration: about 40 × of the antibody concentration (in μM)
[5]; [10]
  inhibition of ocrelizumab reduction by Trx system: effectively inhibits reduction of ocrelizumab

## O=S(=O)([O-])[O-].[Cu+2] [CuSO4, cupric sulfate]
[4]
  intact (150 kDa) antibody remaining in protein A elution pools: ~100%
